In patent publication US20130204033A1, “ANTIPROLIFERATIVE COMPOUNDS, CONJUGATES THEREOF, METHODS THEREFOR, AND USES THEREOF” (Medarex, Inc., priority 2009, published 2013):
Read-outs that look alike come from different tables or passages of the source. Blank lines part the entries; values can stand above or below the molecule they belong to.

Key:
Type in all cases: cell-based, human
A549 = assay: 3H thymidine proliferation assay, A549; conditions: 3H thymidine method, 72 h incubation, read-out: EC50, A549
Procedure: (§1) This example generally describes the procedures used to assay the antiproliferative activity of compounds of this invention or their conjugates. Human tumor cell lines were obtained from the American Type Culture Collection (ATCC), P.O. Box 1549, Manassas, Va. 20108, USA, and cultured according to instruction from the ATCC. Cells were seeded at 1.0×10^3 or 1.0×10^4 cells/well in 96-well plates for 3 h for ATP assays or ^3H thymidine assays, respectively. 1:3 serial dilutions of free (unconjugated) compounds or their conjugates were added to the wells. Plates were allowed to incubate for 24 to 72 h. The ^3H thymidine plates were pulsed with 1.0 μCi of ^3H-thymidine per well for the last 24 hours of the total incubation period, harvested, and read on a Top Count Scintillation Counter (Packard Instruments, Meriden, Conn.). ATP levels in the ATP plates were measured using the […]-GLO® Luminescent Cell Viability kit following the manufacturer's manual and read on a GLOMAX® 20/20 luminometer (both from Promega, Madison, Wis., USA). The EC50 values—the concentration at which an agent inhibits or reduces cell proliferation by 50% —were determined using PRISM™ software, version 4.0 (GraphPad Software, La Jolla, Calif., USA).
(§2) Using the ^3H thymidine or the ATP luminescence assay, or both, the activities of compounds of this invention were assayed against the following cancer cell lines: HCT-15 (colorectal cancer, multi-drug resistant (MDR)); Hep3B (liver cancer); LNCaP (prostate cancer, androgen receptor positive (AR^+)); MDA-MB-231 (breast cancer, estrogen receptor, progesterone receptor, and Her2 negative (triple negative)); A2058 (melanoma); U-87 MG (glioblastoma); NCI-H460 (NSCLC); A549 (NSCLC); HPAC (pancreatic cancer, primary); PC3 (prostate cancer, AR); BT474 (breast cancer, Her2 highly positive (Her2hi)); SKOV3 (ovarian cancer, Her2hi); 786-O (renal cancer); UO-31 (renal cancer, MDR); NCI-H740 (SCLC); DMS53 (SCLC); SK-BR3 (breast cancer, Her2hi); ZR-75 (breast cancer, estrogen receptor positive); OVCAR3 (ovarian cancer); HL-60 (APL); OVCAR8/Adr (ovarian cancer, MDR); CEM-Cl (ALL); Nomo-1 (AML); RPMI-8226 (MM)); Raji (lymphoma); SW-480 (colorectal cancer, metastatic); SW-620 (colorectal cancer); and H226 (lung cancer). (Not all compounds were assayed against all cell lines.)
(§3) Table 2 provides the data for proliferation assays using the ^3H thymidine method, with an incubation period of 72 h.

PC3 [1] = assay: 3H thymidine proliferation assay, PC3; conditions: 3H thymidine method, 72 h incubation, read-out: EC50, PC3
Procedure: as §1, §2, §3

SKOV3 = assay: 3H thymidine proliferation assay, SKOV3; conditions: 3H thymidine method, 72 h incubation, read-out: EC50, SKOV3
Procedure: as §1, §2, §3

UO-31 = assay: 3H thymidine proliferation assay, UO-31; conditions: 3H thymidine method, 72 h incubation, read-out: EC50, UO-31
Procedure: as §1, §2, §3

H740 = assay: 3H thymidine proliferation assay, H740; conditions: 3H thymidine method, 72 h incubation, read-out: EC50, H740
Procedure: as §1, §2, §3

OVCAR3 [2] = assay: 3H thymidine proliferation assay, OVCAR3; conditions: 3H thymidine method, 72 h incubation, read-out: EC50, OVCAR3
Procedure: as §1, §2, §3

HL-60 = assay: 3H thymidine proliferation assay, HL-60; conditions: 3H thymidine method, 72 h incubation, read-out: EC50, HL-60
Procedure: as §1, §2, §3

Raji [3] = assay: 3H thymidine proliferation assay, Raji; conditions: 3H thymidine method, 72 h incubation, read-out: EC50, Raji
Procedure: as §1, §2, §3

HCT-15 = assay: ATP luminescence proliferation assay, HCT-15; conditions: ATP luminescence, HCT-15, 72 h incubation, read-out: EC50 HCT-15 (72 h)
Procedure: as §1, §2
(§4) Table 3 provides the data for the ATP luminescence proliferation assays, with an incubation period of 48, 72, or 96 h, as noted.

U-87 MG = assay: ATP luminescence proliferation assay, U-87 MG; conditions: ATP luminescence, 72 h incubation, read-out: EC50 U-87 MG (72 h)
Procedure: as §1, §2, §4

NCI-H460 = assay: ATP luminescence proliferation assay, NCI-H460; conditions: ATP luminescence, NCI-H460, 72 h incubation, read-out: EC50 NCI-H460 (72 h)
Procedure: as §1, §2, §4

PC3 [4] = assay: ATP luminescence proliferation assay, PC3; conditions: ATP luminescence, PC3, 48 h incubation, read-out: EC50 PC3 (48 h)
Procedure: as §1, §2, §4

ZR-75 = assay: ATP luminescence proliferation assay, ZR-75; conditions: ATP luminescence, ZR-75, 72 h incubation, read-out: EC50 ZR-75 (72 h)
Procedure: as §1, §2, §4

OVCAR3 [5] = assay: ATP luminescence proliferation assay, OVCAR3; conditions: ATP luminescence, OVCAR3, 48 h incubation, read-out: EC50 OVCAR3 (48 h)
Procedure: as §1, §2, §4

CEM-Cl = assay: ATP luminescence proliferation assay, CEM-C1; conditions: ATP luminescence, CEM-C1, 72 h incubation, read-out: EC50 CEM-C1 (72 h)
Procedure: as §1, §2, §4

RPMI-8226 = assay: ATP luminescence proliferation assay, RPMI-8226; conditions: ATP luminescence, RPMI-8226, 72 h incubation, read-out: EC50 RPMI-8226 (72 h)
Procedure: as §1, §2, §4

Raji [6] = assay: ATP luminescence proliferation assay, Raji; conditions: ATP luminescence, 72 h incubation, read-out: EC50 Raji (72 h)
Procedure: as §1, §2, §4

SW-620 = assay: ATP luminescence proliferation assay, SW-620; conditions: ATP luminescence, SW-620, 96 h incubation, read-out: EC50 SW-620 (96 h)
Procedure: as §1, §2, §4

EC50 (A549; Homo sapiens, A549): 128 nM | EC50 (PC3 [1]; Homo sapiens, PC-3): 276 nM | EC50 (SKOV3; Homo sapiens, SK-OV-3): 163 nM | EC50 (H740; Homo sapiens): 255 nM | EC50 (OVCAR3 [2]; Homo sapiens, OVCAR-3): 258 nM | EC50 (HL-60; Homo sapiens, HL-60): 56 nM | EC50 (Raji [3]; Homo sapiens, Raji): 61 nM | EC50 (HCT-15; Homo sapiens): 600 nM | EC50 (U-87 MG; Homo sapiens): 324 nM | EC50 (NCI-H460; Homo sapiens): 92 nM | EC50 (PC3 [4]; Homo sapiens, PC-3): 1080 nM | EC50 (OVCAR3 [5]; Homo sapiens, OVCAR-3): 632 nM | EC50 (RPMI-8226; Homo sapiens): 345 nM | EC50 (Raji [6]; Homo sapiens): 301 nM | EC50 (SW-620; Homo sapiens): 145 nM
Compound: COc1cccc2c1C(=O)c1c(O)c3c(c(O)c1C2=O)C[C@@](O)(C(=O)CO)C[C@@H]3O[C@H]1C[C@H](N)[C@H](O)[C@H](C)O1 [Dox, doxorubicin, reference compound]
EC50 (UO-31; Homo sapiens, UO-31): 267 nM | EC50 (ZR-75; Homo sapiens, ZR75): 236 nM | EC50 (CEM-Cl; Homo sapiens): 161 nM

Compound: CC[C@H](C)[C@H](NC(=O)[C@H]1CCCCN1C)C(=O)N(COC(=O)CC(C)C)[C@H](C[C@@H](OC(C)=O)c1nc(C(=O)N[C@@H](Cc2ccccc2)C[C@H](C)C(=O)O)cs1)C(C)C [Tub D, tubulysin D, reference compound]
EC50 (A549): 0.014 nM | EC50 (PC3 [1]): 0.038 nM | EC50 (SKOV3): 0.039 nM | EC50 (UO-31): 0.1 nM | EC50 (H740): 2.2 nM | EC50 (OVCAR3 [2]): 0.051 nM | EC50 (HL-60): 0.032 nM | EC50 (Raji [3]): 0.013 nM | EC50 (HCT-15): 0.014 nM | EC50 (U-87 MG): 0.0054 nM | EC50 (NCI-H460): 0.0076 nM | EC50 (PC3 [4]): 0.039 nM | EC50 (ZR-75): 0.034 nM | EC50 (OVCAR3 [5]): 0.085 nM | EC50 (CEM-Cl): 0.003 nM | EC50 (RPMI-8226): 0.0051 nM | EC50 (Raji [6]): 0.0048 nM | EC50 (SW-620): 0.0058 nM
